The target in one test is T1, Caspase-3 (Homo sapiens) (UniProt P42574).
T1 sequence (whole entry): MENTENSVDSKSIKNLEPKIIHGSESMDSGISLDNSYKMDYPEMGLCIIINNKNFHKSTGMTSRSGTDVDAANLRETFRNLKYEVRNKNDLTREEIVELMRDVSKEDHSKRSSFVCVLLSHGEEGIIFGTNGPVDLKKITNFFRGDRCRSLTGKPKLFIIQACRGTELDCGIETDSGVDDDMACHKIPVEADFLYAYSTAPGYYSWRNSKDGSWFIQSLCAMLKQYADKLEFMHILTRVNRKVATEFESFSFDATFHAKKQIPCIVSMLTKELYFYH
Nature of the test: Inhibitory activity against caspase-3 (Csp-3).

Test [1] can be described thus: Cellular assay in a model of neuronal apoptosis involving cortical neurons exposed to concanavalin A. Format: functional.
Another test deals with T2, Caspase-3 (Homo sapiens, UniProt P42574).
T2 sequence (P42574 whole entry): T1 sequence (whole entry)
The test is described as follows: Binding affinity against caspase-3 (Csp-3).

Another test concerns Jurkat. Nature of the test: Cellular assay in a Fas-induced model of apoptosis in Jurkat cells. The test is classed as functional, cell-based. The settings on record: Homo sapiens.
The next test concerns the target T3, Caspase-1 (Mus musculus, UniProt P29452).
T3 sequence (P29452 whole entry): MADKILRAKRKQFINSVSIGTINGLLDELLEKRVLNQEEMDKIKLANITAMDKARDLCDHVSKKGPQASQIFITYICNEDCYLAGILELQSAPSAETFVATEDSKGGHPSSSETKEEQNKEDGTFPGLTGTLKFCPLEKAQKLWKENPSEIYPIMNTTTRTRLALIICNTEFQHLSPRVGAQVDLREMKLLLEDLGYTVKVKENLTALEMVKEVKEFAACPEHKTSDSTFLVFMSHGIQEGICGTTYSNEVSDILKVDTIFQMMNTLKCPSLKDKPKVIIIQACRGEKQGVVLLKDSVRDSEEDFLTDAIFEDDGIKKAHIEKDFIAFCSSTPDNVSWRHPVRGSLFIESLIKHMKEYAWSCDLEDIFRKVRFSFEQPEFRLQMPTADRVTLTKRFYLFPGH
The test is described as follows: Binding affinity against Murine caspase-1 (mCsp-1).

The species named for a further test is Homo sapiens. Nature of the test: Cellular assay in an inflammation model measuring IL1-beta secretion from isolated human monocytes induced with Staph A. The test is classed as functional.
The target of a further test is T4, Caspase-1 (Mus musculus) (UniProt P29452).
T4 sequence (whole entry): T3 sequence (P29452 whole entry)
The test is described as follows: Inhibitory activity against murine caspase-1.

Another test deals with T5, Caspase-6 (Homo sapiens) (UniProt P55212).
T5 sequence (whole entry): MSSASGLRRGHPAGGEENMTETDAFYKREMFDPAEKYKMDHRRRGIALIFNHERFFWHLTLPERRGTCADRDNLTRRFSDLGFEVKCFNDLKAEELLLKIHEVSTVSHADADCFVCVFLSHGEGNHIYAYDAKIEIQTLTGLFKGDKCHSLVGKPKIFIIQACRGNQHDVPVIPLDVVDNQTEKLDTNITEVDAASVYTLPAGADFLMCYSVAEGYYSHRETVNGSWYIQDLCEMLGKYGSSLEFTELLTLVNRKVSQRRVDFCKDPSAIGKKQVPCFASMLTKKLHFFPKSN
The test is described as follows: Inhibitory activity against caspase-6 (Csp-6).

For a further test, the target named is Caspase-8 (Homo sapiens) (UniProt Q14790). Nature of the test: Inhibitory activity against caspase-8 (Csp-8).
Chain of Caspase-8 (Homo sapiens) (Q14790 217-374 limits assumed): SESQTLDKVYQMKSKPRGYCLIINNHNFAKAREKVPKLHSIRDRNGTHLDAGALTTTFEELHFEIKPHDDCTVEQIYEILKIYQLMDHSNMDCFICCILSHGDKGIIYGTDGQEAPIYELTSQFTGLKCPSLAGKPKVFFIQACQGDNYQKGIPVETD
Chain of Caspase-8 (Homo sapiens) (Q14790 385-479 limits assumed): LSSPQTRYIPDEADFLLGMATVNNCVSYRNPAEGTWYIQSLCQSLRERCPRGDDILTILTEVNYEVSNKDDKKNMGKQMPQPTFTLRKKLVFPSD

Where only a bound is given, the exact number is not on record here.

Turning to `CC(C)[C@H](NC(=O)COc1cccc2ccccc12)C(=O)N[C@@H](CC(=O)O)C(=O)COc1cccc2ccccc12`, the results for the k3/Ki at Caspase-3 (Homo sapiens) and at Caspase-1 (Mus musculus) were 1.96e+06 M⁻¹ s⁻¹ and 354000 M⁻¹ s⁻¹, respectively. For the same molecule, the 50% inhibitory concentration (IC50) (commonly the concentration that inhibits the measured activity by half) is 2.65 µM in [1], > 100 µM in the test on Jurkat and 19 µM in the test listed under Homo sapiens. The Ki (usually the dissociation constant of the complex between target and ligand, obtained from inhibition or displacement) worked out at 0.0071 µM on Caspase-3 and 0.07 µM on Caspase-1.

Turning to `CC(C)[C@H](NC(=O)COc1cccc2ccccc12)C(=O)N[C@@H](CC(=O)O)C(=O)COc1cc(F)cc(F)c1`, the k3/Ki was 9240 M⁻¹ s⁻¹ at Caspase-3 (Homo sapiens), 106 M⁻¹ s⁻¹ at Caspase-6 (Homo sapiens), 2170 M⁻¹ s⁻¹ on Caspase-1 (Mus musculus) and 154 M⁻¹ s⁻¹ at Caspase-8 (Homo sapiens). The IC50 in test [1] was 11.6 µM; in the test with Jurkat it was > 100 µM; in the test filed under Homo sapiens, 15.9 µM.

For the molecule `CC(C)[C@H](NC(=O)COc1cccc2ccccc12)C(=O)N[C@@H](CC(=O)O)C(=O)COc1ccc2ccccc2c1`, the k3/Ki turned out to be 7520 M⁻¹ s⁻¹ at Caspase-3 (Homo sapiens) and 263 M⁻¹ s⁻¹ at Caspase-1 (Mus musculus). The values for the IC50 (in [1]; in the test on Jurkat; in the test filed under Homo sapiens) were > 50 µM, > 100 µM and 15.9 µM, respectively. The figures for the Ki on Caspase-3 and on Caspase-1 were 0.09 µM and 3.17 µM, respectively.

Turning to `CC(C)[C@H](NC(=O)COc1cccc2ccccc12)C(=O)N[C@@H](CC(=O)O)C(=O)COc1ccc(Oc2ccc(C(F)(F)F)cc2)cc1`, the k3/Ki at Caspase-3 (Homo sapiens) stood at 6930 M⁻¹ s⁻¹; on Caspase-6 (Homo sapiens), 625 M⁻¹ s⁻¹; on Caspase-1 (Mus musculus), 1540 M⁻¹ s⁻¹; at Caspase-8 (Homo sapiens), 1120 M⁻¹ s⁻¹. For the same molecule, the IC50 in test [1] is > 50 µM; in the test on Jurkat, 9.3 µM; in the test filed under Homo sapiens, 24.9 µM.

With `CC(C)[C@H](NC(=O)COc1cccc2ccccc12)C(=O)N[C@@H](CC(=O)O)C(=O)COc1ccc(F)c(F)c1`, the k3/Ki came to 6460 M⁻¹ s⁻¹ at Caspase-3 (Homo sapiens), 86 M⁻¹ s⁻¹ on Caspase-6 (Homo sapiens), 1620 M⁻¹ s⁻¹ at Caspase-1 (Mus musculus) and 117 M⁻¹ s⁻¹ on Caspase-8 (Homo sapiens). Further, the IC50 in [1] was 17 µM; in the test on Jurkat, > 100 µM; in the test listed under Homo sapiens, 16.2 µM.

Take `CC(C)[C@H](NC(=O)COc1cccc2ccccc12)C(=O)N[C@@H](CC(=O)O)C(=O)COc1cccc(F)c1`: the k3/Ki was 17800 M⁻¹ s⁻¹ at Caspase-3 (Homo sapiens), 48 M⁻¹ s⁻¹ on Caspase-6 (Homo sapiens), 2730 M⁻¹ s⁻¹ at Caspase-1 (Mus musculus) and 461 M⁻¹ s⁻¹ at Caspase-8 (Homo sapiens). The IC50 was > 50 µM in test [1], > 100 µM with Jurkat and 12 µM in the test listed under Homo sapiens.

For `CC(C)[C@H](NC(=O)COc1cccc2ccccc12)C(=O)N[C@@H](CC(=O)O)C(=O)COc1ccc(C(F)(F)F)cc1`, the k3/Ki came out at 13200 M⁻¹ s⁻¹ on Caspase-3 (Homo sapiens), 77 M⁻¹ s⁻¹ at Caspase-6 (Homo sapiens), 2580 M⁻¹ s⁻¹ on Caspase-1 (Mus musculus) and 196 M⁻¹ s⁻¹ on Caspase-8 (Homo sapiens). The values for the IC50 (in test [1]; in the test on Jurkat; in the test filed under Homo sapiens) were > 50 µM, > 100 µM and 12.3 µM, respectively.

Consider `CC(C)[C@H](NC(=O)COc1cccc2ccccc12)C(=O)N[C@@H](CC(=O)O)C(=O)COc1c(F)c(F)c(-c2c(F)c(F)c(F)c(F)c2F)c(F)c1F`, for which the k3/Ki stood at 52100 M⁻¹ s⁻¹ on Caspase-3 (Homo sapiens), 27000 M⁻¹ s⁻¹ on Caspase-6 (Homo sapiens), 6680 M⁻¹ s⁻¹ at Caspase-1 (Mus musculus) and 10400 M⁻¹ s⁻¹ at Caspase-8 (Homo sapiens). Also, the IC50 in [1] is > 50 µM; with Jurkat, 20 µM; in the test filed under Homo sapiens, 40 µM.

Consider `CC(C)[C@H](NC(=O)COc1cccc2ccccc12)C(=O)N[C@@H](CC(=O)O)C(=O)COc1c(F)c(F)cc(F)c1F`, for which the k3/Ki was 268000 M⁻¹ s⁻¹ at Caspase-3 (Homo sapiens), 78900 M⁻¹ s⁻¹ on Caspase-6 (Homo sapiens), 77500 M⁻¹ s⁻¹ on Caspase-1 (Mus musculus) and 30200 M⁻¹ s⁻¹ at Caspase-8 (Homo sapiens). For the same molecule, the IC50 in test [1] amounted to 2.17 µM; in the test on Jurkat it was 4.5 µM; in the test listed under Homo sapiens, 6.25 µM.

On to `CC(C)[C@H](NC(=O)COc1cccc2ccccc12)C(=O)N[C@@H](CC(=O)O)C(=O)COc1c(F)cc(F)cc1F`, for which the k3/Ki was 114000 M⁻¹ s⁻¹ at Caspase-3 (Homo sapiens), 5140 M⁻¹ s⁻¹ on Caspase-6 (Homo sapiens), 20700 M⁻¹ s⁻¹ at Caspase-1 (Mus musculus) and 9080 M⁻¹ s⁻¹ on Caspase-8 (Homo sapiens). The IC50 in [1] was 2.35 µM; in the test on Jurkat, 6.84 µM; in the test filed under Homo sapiens it was 14.9 µM.

Turning to `CC(C)[C@H](NC(=O)COc1cccc2ccccc12)C(=O)N[C@@H](CC(=O)O)C(=O)COc1ccc(C#N)cc1`, the k3/Ki at Caspase-3 (Homo sapiens) turned out to be 10200 M⁻¹ s⁻¹; at Caspase-6 (Homo sapiens), 46 M⁻¹ s⁻¹; at Caspase-1 (Mus musculus) it was 3720 M⁻¹ s⁻¹; on Caspase-8 (Homo sapiens) it was 48 M⁻¹ s⁻¹. The IC50 in [1] was > 50 µM; in the test with Jurkat, > 100 µM; in the test listed under Homo sapiens, 26.7 µM.

Regarding `CC(C)[C@H](NC(=O)COc1cccc2ccccc12)C(=O)N[C@@H](CC(=O)O)C(=O)COc1ccc(F)c(F)c1F`, the k3/Ki turned out to be 35800 M⁻¹ s⁻¹ at Caspase-3 (Homo sapiens), 253 M⁻¹ s⁻¹ at Caspase-6 (Homo sapiens), 11900 M⁻¹ s⁻¹ at Caspase-1 (Mus musculus) and 769 M⁻¹ s⁻¹ at Caspase-8 (Homo sapiens). Also, the IC50 in test [1] is > 50 µM; in the test on Jurkat it was 35.8 µM; in the test listed under Homo sapiens, 20.6 µM.

Turning to `CC(C)[C@H](NC(=O)COc1cccc2ccccc12)C(=O)N[C@@H](CC(=O)O)C(=O)COc1ccc([N+](=O)[O-])cc1`, the k3/Ki on Caspase-3 (Homo sapiens) is 8400 M⁻¹ s⁻¹; on Caspase-6 (Homo sapiens) it was 117 M⁻¹ s⁻¹; at Caspase-1 (Mus musculus), 6130 M⁻¹ s⁻¹; at Caspase-8 (Homo sapiens) it was 137 M⁻¹ s⁻¹. Besides, the IC50 in test [1] was 13.5 µM; in the test on Jurkat, > 100 µM; in the test filed under Homo sapiens, 22.8 µM.

Consider `CC(C)[C@H](NC(=O)COc1cccc2ccccc12)C(=O)N[C@@H](CC(=O)O)C(=O)COC(=O)c1c(Cl)cccc1Cl`, for which the k3/Ki was found to be 725000 M⁻¹ s⁻¹ on Caspase-3 (Homo sapiens), 56900 M⁻¹ s⁻¹ at Caspase-6 (Homo sapiens), 52100 M⁻¹ s⁻¹ at Caspase-1 (Mus musculus) and 17000 M⁻¹ s⁻¹ at Caspase-8 (Homo sapiens). Also, the concentration for half-maximal inhibition (IC50) in test [1] was 2.15 µM; with Jurkat it was 10.6 µM; in the test filed under Homo sapiens, 11.5 µM.

`CC(C)[C@H](NC(=O)COc1cccc2ccccc12)C(=O)N[C@@H](CC(=O)O)C(=O)COc1ccccc1[N+](=O)[O-]`: the k3/Ki turned out to be 73000 M⁻¹ s⁻¹ at Caspase-3 (Homo sapiens), 10700 M⁻¹ s⁻¹ on Caspase-6 (Homo sapiens), 23500 M⁻¹ s⁻¹ at Caspase-1 (Mus musculus) and 1810 M⁻¹ s⁻¹ on Caspase-8 (Homo sapiens). In addition, the IC50 is 5.85 µM in [1], > 100 µM in the test on Jurkat and 27.7 µM in the test listed under Homo sapiens.

As to `CC(C)[C@H](NC(=O)COc1cccc2ccccc12)C(=O)N[C@@H](CC(=O)O)C(=O)COc1cc(F)ccc1F`, the k3/Ki worked out at 49000 M⁻¹ s⁻¹ at Caspase-3 (Homo sapiens), 1330 M⁻¹ s⁻¹ on Caspase-6 (Homo sapiens), 12100 M⁻¹ s⁻¹ on Caspase-1 (Mus musculus) and 483 M⁻¹ s⁻¹ at Caspase-8 (Homo sapiens). The half-inhibitory concentration (IC50) in [1] was 4.85 µM; in the test with Jurkat, > 100 µM; in the test listed under Homo sapiens, 19.7 µM.

As for `CC(C)[C@H](NC(=O)COc1cccc2ccccc12)C(=O)N[C@@H](CC(=O)O)C(=O)COc1ccc([N+](=O)[O-])cc1F`, the k3/Ki at Caspase-3 (Homo sapiens) is 36500 M⁻¹ s⁻¹; at Caspase-6 (Homo sapiens), 1770 M⁻¹ s⁻¹; at Caspase-1 (Mus musculus) it was 12300 M⁻¹ s⁻¹; at Caspase-8 (Homo sapiens), 1850 M⁻¹ s⁻¹. For the same molecule, the IC50 in test [1] is 6.2 µM; with Jurkat, 30.3 µM; in the test listed under Homo sapiens, 15.8 µM.

Take `CC(C)[C@H](NC(=O)COc1cccc2ccccc12)C(=O)N[C@@H](CC(=O)O)C(=O)COc1c(Cl)cccc1Cl`: the k3/Ki on Caspase-3 (Homo sapiens) worked out at 179000 M⁻¹ s⁻¹; on Caspase-6 (Homo sapiens) it was 87700 M⁻¹ s⁻¹; on Caspase-1 (Mus musculus), 25300 M⁻¹ s⁻¹; on Caspase-8 (Homo sapiens), 2710 M⁻¹ s⁻¹. Moreover, the concentration for half-maximal inhibition (IC50) in test [1] is 2.75 µM; with Jurkat it was 3 µM; in the test filed under Homo sapiens it was 15.3 µM.

The values above are taken from ChEMBL document CHEMBL1136305, “Structure-activity relationships within a series of caspase inhibitors: effect of leaving group modifications” (Bioorg Med Chem Lett, 2003).
